Results reported in patent US9963464B2, “Macrocyclic compounds” (Bayer Pharma Aktiengesellschaft, priority 2014, dated 2018).

How the values were obtained:
[1] = molecular target: T1, human PTEFb (CDK9/Cyclin T1) (Homo sapiens, UniProt P50750); experiment: Surface plasmon resonance PTEFb; format: binding; settings: SPR; for koff: 25° C., below 5E-5 s^-1 not resolvable, read-out: Dissociation rate constant koff; for Target resident time: 1/koff
T1 construct: purchased ProQinase, Freiburg, Germany
Excerpt: 8. Surface Plasmon Resonance PTEFb
The term “surface plasmon resonance”, as used herein, refers to an optical phenomenon that allows for the analysis of the reversible associations of biological molecules in real time within a biosensor matrix, for example using the Biacore® system (GE Healthcare Biosciences, Uppsala, Sweden). Biacore® uses the optical properties of surface plasmon resonance (SPR) to detect alterations in the refractive index of a buffer, which changes as molecules in solution interact with the target immobilized on the surface. In brief, proteins are covalently bound to the dextran matrix at a known concentration and a ligand for the protein is injected through the dextran matrix. Near infrared light, directed onto the opposite side of the sensor chip surface is reflected and also induces an evanescent wave in the gold film, which in turn, causes an intensity dip in the reflected light at a particular angle known as the resonance angle. If the refractive index of the sensor chip surface is altered (e.g. by compound binding to the bound protein) a shift occurs in the resonance angle. This angle shift can be measured.
The term “KD”, as used herein, is intended to refer to the equilibrium dissociation constant of a particular compound/target protein complex.
The term “koff”, as used herein, is intended to refer to the off-rate, i.e. the dissociation rate constant of a particular compound/target protein complex.
The term “target residence time”, as used herein, is intended to refer to the inverse of the rate of dissociation rate constant (1/koff) of a particular compound/target protein complex.
The ability of the compounds according to the invention to bind human PTEFb may be determined using surface plasmon resonance (SPR). KD values and koff values may be measured using a Biacore® T200 instrument (GE Healthcare, Uppsala, Sweden).
For SPR measurements, recombinant human PTEFb (CDK9/Cyclin T1 recombinant human active protein kinase purchased from ProQinase, Freiburg, Germany) is immobilized using standard amine coupling (Johnsson B et al, Anal Biochem. 1991 Nov. 1; 198(2):268-77). Briefly, carboxymethylated dextran biosensor chips (CM7, GE Healthcare) are activated with N-ethyl-N′-(3-dimethylaminopropyl)-carbodiimide hydrochloride (EDC) and N-hydroxysuccinimide (NHS) according to the supplier's instructions. Human PTEFb is diluted in 1×HBS-EP+(GE Healthcare) into 30 μg/ml and injected on the activated chip surface. Subsequently, a 1:1 solution of 1 M ethanolamine-HCl (GE Healthcare) and 1×HBS-EP is injected to block unreacted groups, resulting in approximately 4000 response units (RU) of immobilized protein. A reference surface is generated by treatment with NHS-EDC and ethanolamine-HCl. Compounds are dissolved in 100% dimethylsulfoxide (DMSO, Sigma-Aldrich, Germany) to a concentration of 10 mM and subsequently diluted in running buffer (1×HBS-EP+pH 7.4 [generated from HBS-EP+Buffer 10× (GE Healthcare): 0.1 M HEPES, 1.5 M NaCl, 30 mM EDTA and 0.5% v/v Surfactant P20], 1% v/v DMSO). For kinetic measurements, four-fold serial dilutions of compound (0.39 nM to 100 nM) are injected over immobilized protein. Binding kinetics is measured at 25° C. with a flow rate of 50 μl/min in running buffer. Compound concentrations are injected for 60 s followed by a dissociation time of 1800 s. The resulting sensorgrams are double-referenced against the reference surface as well as against blank injections.
The double-referenced sensorgrams are fit to a simple reversible Langmuir 1:1 reaction mechanism as implemented in the Biacore® T200 evaluation software 2.0 (GE Healthcare). In cases were full compound dissociation has not occurred at the end of the dissociation phase, the Rmax parameter (response at saturation) is fit as local variable. In all other cases, Rmax is fit as global variable.

Caco-2 permeation assay = format: in vitro ADME; settings: human, pH 7.2, Caco-2 monolayer, 2 μM test compound; for Papp A→B at 2 h, 2 μM: read-out: Papp A-B (Mari); for Papp B→A at 2 h, 2 μM: read-out: Papp B-A (Mari); for efflux ratio at 2 h, 2 μM: read-out: Efflux ratio (Papp B-A/Papp A-B)
Procedure: 5. Caco-2 Permeation Assay:
Caco-2 cells (purchased from DSMZ Braunschweig, Germany) were seeded at a density of 4.5×10^4 cells per well on 24 well insert plates, 0.4 μm pore size, and grown for 15 days in DMEM medium supplemented with 10% fetal bovine serum, 1% GlutaMAX (100×, GIBCO), 100 U/mL penicillin, 100 μg/mL streptomycin (GIBCO) and 1% non essential amino acids (100×). Cells were maintained at 37° C. in a humidified 5% CO2 atmosphere. Medium was changed every 2-3 day. Before running the permeation assay, the culture medium was replaced by a FCS-free hepes-carbonate transport buffer (pH 7.2). For assessment of monolayer integrity the transepithelial electrical resistance (TEER) was measured. Test compounds were predissolved in DMSO and added either to the apical or basolateral compartment in final concentration of 2 μM in transport buffer. Before and after 2 h incubation at 37° C. samples were taken from both compartments. Analysis of compound content was done after precipitation with methanol by LC/MS/MS analysis. Permeability (Papp) was calculated in the apical to basolateral (A→B) and basolateral to apical (B→A) directions. The apparent permeability was calculated using following equation: Papp=(Vr/Po)(1/S)(P2/t) Where Vr is the volume of medium in the receiver chamber, Po is the measured peak area or height of the test drug in the donor chamber at t=o, S the surface area of the monolayer, P2 is the measured peak area of the test drug in the acceptor chamber after 2 h of incubation, and t is the incubation time. The efflux ratio basolateral (B) to apical (A) was calculated by dividing the Papp B-A by the Papp A-B. In addition the compound recovery was calculated.

T1 sequence (P50750 whole entry): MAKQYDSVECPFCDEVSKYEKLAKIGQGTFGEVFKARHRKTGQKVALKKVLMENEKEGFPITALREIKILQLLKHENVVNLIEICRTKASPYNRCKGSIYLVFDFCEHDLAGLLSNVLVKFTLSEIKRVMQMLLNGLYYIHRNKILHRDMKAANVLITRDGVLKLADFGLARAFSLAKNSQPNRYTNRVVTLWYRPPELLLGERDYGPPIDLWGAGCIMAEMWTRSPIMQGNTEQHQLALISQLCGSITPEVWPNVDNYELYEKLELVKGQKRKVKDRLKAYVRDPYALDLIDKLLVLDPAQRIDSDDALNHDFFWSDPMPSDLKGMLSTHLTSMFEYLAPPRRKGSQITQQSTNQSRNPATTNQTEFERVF
T1 sequence (O60563 whole entry partner): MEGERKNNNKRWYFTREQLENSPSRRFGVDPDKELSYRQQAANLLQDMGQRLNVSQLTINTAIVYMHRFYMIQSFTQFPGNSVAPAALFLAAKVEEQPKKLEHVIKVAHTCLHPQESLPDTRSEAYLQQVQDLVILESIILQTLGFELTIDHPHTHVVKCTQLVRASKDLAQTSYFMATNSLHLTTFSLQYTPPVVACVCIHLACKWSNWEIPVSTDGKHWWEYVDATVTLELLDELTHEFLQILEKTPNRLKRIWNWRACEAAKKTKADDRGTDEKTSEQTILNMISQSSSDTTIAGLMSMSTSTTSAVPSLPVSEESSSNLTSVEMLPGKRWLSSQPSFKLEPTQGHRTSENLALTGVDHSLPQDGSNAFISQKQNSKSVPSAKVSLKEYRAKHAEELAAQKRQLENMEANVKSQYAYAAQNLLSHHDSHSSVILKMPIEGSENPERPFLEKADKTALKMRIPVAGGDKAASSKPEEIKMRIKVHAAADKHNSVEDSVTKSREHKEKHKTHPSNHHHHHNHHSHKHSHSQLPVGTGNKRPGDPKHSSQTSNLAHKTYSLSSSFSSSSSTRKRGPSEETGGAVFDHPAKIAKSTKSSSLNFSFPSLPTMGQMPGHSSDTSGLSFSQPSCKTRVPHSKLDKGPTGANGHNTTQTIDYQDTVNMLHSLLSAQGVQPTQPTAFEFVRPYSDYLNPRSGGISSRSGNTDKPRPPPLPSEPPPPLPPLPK

Row | Compound | koff [1] | Target resident time [1] | Papp A→B at 2 h, 2 μM (Caco-2 permeation assay) | Papp B→A at 2 h, 2 μM (Caco-2 permeation assay) | efflux ratio at 2 h, 2 μM (Caco-2 permeation assay)
1 | CS(=N)(=O)Cc1cc2cc(c1)OCCCCOc1cc(F)ccc1-c1nc(ncc1F)N2 (racemic) [Example 1, (rac)-16,20-Difluoro-9-[(S-methylsulfonimidoyl)methyl]-2,3,4,5-tetrahydro-12H-13,17-(azeno)-11,7-(metheno)-1,6,12,14-benzodioxadiazacyclononadecine] | < 5e-05 s⁻¹ | >333 min | 139 nm/s | 197 nm/s | 1.4
2 | NCCS(=O)(=O)Cc1cc2nc(c1)OCCCOc1cc(F)ccc1-c1cc(ncc1F)N2 [Example 26, 2-({[15,19-difluoro-3,4-dihydro-2H,11H-10,6-(azeno)-12,16-(metheno)-1,5,11,13-benzodioxadiazacyclooctadecin-8-yl]methyl}sulfonyl)ethanamine] |  |  | 12 nm/s | 76 nm/s | 6.5
3 | CS(=O)(Cc1cc2nc(c1)OCCCOc1cc(F)ccc1-c1cc(ncc1F)N2)=NS(=O)(=O)CCN (racemic) [Example 23, (rac)-2-amino-N-[{[15,19-difluoro-3,4-dihydro-2H,11H-10,6-(azeno)-12,16-(metheno)-1,5,11,13-benzodioxadiazacyclooctadecin-8-yl]methyl}(methyl)oxido-λ^6-sulfanylidene]ethanesulfonamide] |  |  | 6 nm/s | 442 nm/s | 69.7

Second part, the compound after the results:

Row | koff [1] | Target resident time [1] | Papp A→B at 2 h, 2 μM (Caco-2 permeation assay) | Papp B→A at 2 h, 2 μM (Caco-2 permeation assay) | efflux ratio at 2 h, 2 μM (Caco-2 permeation assay) | Compound
4 | 9.3e-05 s⁻¹ | 179.2 min | 47 nm/s | 43 nm/s | 0.91 | CS(=N)(=O)Cc1cc2nc(c1)OCCCOc1cc(F)ccc1-c1cc(ncc1F)N2 (racemic) [Example 5, (rac)-15,19-Difluoro-8-[(S-methylsulfonimidoyl)methyl]-3,4-dihydro-2H,11H-10,6-(azeno)-12,16-(metheno)-1,5,11,13-benzodioxadiazacyclooctadecine]
5 | < 5e-05 s⁻¹ | >333 min | 67 nm/s | 55 nm/s | 0.8 | CS(=O)(=O)Cc1cc2nc(c1)OCCCOc1cc(F)ccc1-c1cc(ncc1F)N2 [Example 8, 15,19-difluoro-8-[(methylsulfonyl)methyl]-3,4-dihydro-2H,11H-10,6-(azeno)-12,16-(metheno)-1,5,11,13-benzodioxadiazacyclooctadecine]
